In patent publication US20210338846A1, “COMPETITIVE PROSTATE-SPECIFIC MEMBRANE ANTIGEN (PSMA) BINDING AGENTS FOR REDUCTION OF NON-TARGET ORGAN UPTAKE OF RADIOLABELED PSMA INHIBITORS FOR PSMA POSITIVE TUMOR IMAGING AND RADIOPHARMACEUTICAL THERAPY” (The Johns Hopkins University, priority 2018, published 2021):
pKi: −log10 of the molar value. Like-named read-outs stand apart in the source and are kept apart here.

How the values were obtained:
PSMA+PiP tumors = details: cited from earlier work; for renal uptake (in words) / uptake in PSMA+ PiP tumors (in words): radiolabeled version
PSMA = PSMA (Homo sapiens, UniProt Q04609); details: read-out: Ki (PSMA inhibition); cited from earlier work
Chain of PSMA (Q04609 whole entry): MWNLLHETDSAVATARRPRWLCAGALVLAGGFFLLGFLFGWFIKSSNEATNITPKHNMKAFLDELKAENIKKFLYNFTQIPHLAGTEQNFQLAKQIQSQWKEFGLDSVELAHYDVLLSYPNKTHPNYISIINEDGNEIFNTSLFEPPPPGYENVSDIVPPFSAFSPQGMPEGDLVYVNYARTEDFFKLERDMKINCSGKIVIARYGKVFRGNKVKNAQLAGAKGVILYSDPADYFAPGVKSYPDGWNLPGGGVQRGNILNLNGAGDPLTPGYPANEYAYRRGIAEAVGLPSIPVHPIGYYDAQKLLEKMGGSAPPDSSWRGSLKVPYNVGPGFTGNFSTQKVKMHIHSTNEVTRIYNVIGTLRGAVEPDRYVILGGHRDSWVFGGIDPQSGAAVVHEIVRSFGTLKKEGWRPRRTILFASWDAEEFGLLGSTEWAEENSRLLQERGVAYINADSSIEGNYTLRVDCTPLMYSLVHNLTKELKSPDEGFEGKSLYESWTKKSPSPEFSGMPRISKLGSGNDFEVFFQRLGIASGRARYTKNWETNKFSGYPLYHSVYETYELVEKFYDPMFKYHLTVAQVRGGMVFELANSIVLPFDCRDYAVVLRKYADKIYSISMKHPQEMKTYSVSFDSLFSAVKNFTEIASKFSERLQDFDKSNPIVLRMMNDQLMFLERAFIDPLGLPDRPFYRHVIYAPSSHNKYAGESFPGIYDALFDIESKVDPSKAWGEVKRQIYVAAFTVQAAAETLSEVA

[1] = system: PSMA+ PC-3 PiP and PSMA− PC-3 flu tumors; assay: Biodistribution of [177Lu]VK-03-27 without and with co-injection of competing inhibitor VK-03-27; format: in vivo, mice; details: for Biodistribution: Blood / Biodistribution: Flu tumor / Biodistribution: Lacrimal Glands / Biodistribution: PiP tumor / Biodistribution: Salivary gland / Biodistribution: kidneys / Biodistribution: spleen / Biodistribution: stomach: 2 Hour
[2] = mouse treated with 1.5 MBq; from Kiess et al., 2016; cited from earlier work
[3] = system: PSMA+ PC-3 PiP and PSMA− PC-3 flu tumors; assay: Biodistribution of [177Lu]VK-I-45 without and with co-injection of competing inhibitor [Lu]VK-I-45; format: in vivo, mice; details: for Biodistribution: Blood / Biodistribution: Flu tumor / Biodistribution: PiP tumor / Biodistribution: Salivary gland / Biodistribution: kidneys / Biodistribution: spleen / Biodistribution: stomach: 2 Hour
Source text: VK-01-45 and its Lu-177 complex was reported in international PCT patent application publication no. WO 2017/165473 A, to Ray et al., which is incorporated herein by reference in its entirety. […] This approach can be applied to all compounds in WO 2017/165473 A1, to Ray et al.

[4] = system: PSMA+ PC-3 PiP and PSMA− PC-3 flu tumors; details: for Biodistribution: Blood / Biodistribution: Flu tumor / Biodistribution: Lacrimal gland / Biodistribution: PiP tumor / Biodistribution: Salivary gland / Biodistribution: kidneys / Biodistribution: spleen / Biodistribution: stomach: without competitive inhibitor
[5] = co-injection 0.1 nmole [Lu]VK-I-45
[6] = co-injection 0.5 nmole [Lu]VK-I-45
[7] = co-injection 1.0 nmole [Lu]VK-I-45
[8] = co-injection 5.0 nmole [Lu]VK-I-45

O=C(O)CC[C@H](NC(=O)N[C@@H](CCC(=O)NCCc1ccc(I)cc1)C(=O)O)C(=O)O [HS-549]
renal uptake (in words) (PSMA+PiP tumors): high initial kidney uptake
uptake in PSMA+ PiP tumors (in words) (PSMA+PiP tumors): high PSMA+Pip tumor uptake

O=C(O)CCC(OC(=O)NC(CCCCNC(=O)c1ccc(I)cc1F)C(=O)O)C(=O)O (stereo not shown) [Compound 24]
pKi (PSMA): 9.70
renal uptake (in words) (PSMA+PiP tumors): high initial renal uptake that decreases over time
uptake in PSMA+ PiP tumors (in words) (PSMA+PiP tumors): high uptake

O=C(O)CC[C@H](NC(=O)N[C@@H](CCCCN(Cc1ccc(Br)cc1)C(=O)CCCCNC(=O)CCC(C(=O)O)N1CCN(CC(=O)O)CCN(CC(=O)O)CCN(CC(=O)O)CC1)C(=O)O)C(=O)O (stereo partly shown) [VK-03-27]
effect of competing inhibitor on uptake of [177Lu]VK-03-27 ([1]; VK-03-27 (no Lu complex) as the CI): reduces the uptake in kidneys, salivary glands and Lacrimal glands

O=C(O)CC[C@H](NC(=O)NC(CCCCNC(=O)c1ccc([211At])cc1)C(=O)O)C(=O)O (stereo partly drawn) [[^211At]DCIBzL, (2S)-2-(3-(1-Carboxy-5-(4-[^211At]astatobenzamido)pentyl)ureido)-pentanedioic acid]
renal histopathology [2]: severe renal damage

O=C(O)CC[C@H](NC(=O)N[C@@H](CCCCNC(=O)c1ccc(I)cc1)C(=O)O)C(=O)O [YC-I-27]
uptake and retention in kidneys (PSMA+PiP tumors; radiolabeled form, out to two days post-injection): > 100 % ID/g
uptake in PSMA+ PiP tumors (in words) (PSMA+PiP tumors): high and prolonged uptake

O=C([O-])CN1CCN(CC(=O)[O-])CCN(CC(=O)NCCCCC(=O)N(CCCC[C@H](NC(=O)N[C@@H](CCC(=O)O)C(=O)O)C(=O)O)Cc2ccc(Br)cc2)CCN(CC(=O)[O-])CC1.[177Lu+3] [[^177Lu]VK-I-45]
Biodistribution: Blood ([3]; No CI): 0.1 ± 0.04 % injected dose/gram
Biodistribution: Flu tumor ([3]; No CI): 0.3 ± 0.06 % injected dose/gram
Biodistribution: PiP tumor ([3]; No CI): 39 ± 14 % injected dose/gram
Biodistribution: Salivary gland ([3]; No CI): 0.16 ± 0.07 % injected dose/gram
Biodistribution: kidneys ([3]; No CI): 35 ± 17 % injected dose/gram
Biodistribution: spleen ([3]; No CI): 0.7 ± 0.2 % injected dose/gram
Biodistribution: stomach ([3]; No CI): 0.1 ± 0.04 % injected dose/gram
Biodistribution: Blood [3, 5]: 0.12 ± 0.02 % injected dose/gram
Biodistribution: Flu tumor [3, 5]: 0.4 ± 0.07 % injected dose/gram
Biodistribution: PiP tumor [3, 5]: 38 ± 4 % injected dose/gram
Biodistribution: Salivary gland [3, 5]: 0.16 ± 0.03 % injected dose/gram
Biodistribution: kidneys [3, 5]: 17 ± 11 % injected dose/gram
Biodistribution: spleen [3, 5]: 0.65 ± 0.1 % injected dose/gram
Biodistribution: stomach [3, 5]: 0.2 ± 0.08 % injected dose/gram
Biodistribution: Blood [3, 6]: 0.11 ± 0.04 % injected dose/gram
Biodistribution: Flu tumor [3, 6]: 0.35 ± 0.07 % injected dose/gram
Biodistribution: PiP tumor [3, 6]: 35 ± 8 % injected dose/gram
Biodistribution: Salivary gland [3, 6]: 0.12 ± 0.02 % injected dose/gram
Biodistribution: kidneys [3, 6]: 4.8 ± 1.4 % injected dose/gram
Biodistribution: spleen [3, 6]: 0.32 ± 0.07 % injected dose/gram
Biodistribution: stomach [3, 6]: 0.09 ± 0.02 % injected dose/gram
Biodistribution: Blood [3, 7]: 0.07 ± 0.02 % injected dose/gram
Biodistribution: Flu tumor [3, 7]: 0.2 ± 0.03 % injected dose/gram
Biodistribution: PiP tumor [3, 7]: 20 ± 1.5 % injected dose/gram
Biodistribution: Salivary gland [3, 7]: 0.07 ± 0.01 % injected dose/gram
Biodistribution: kidneys [3, 7]: 1.75 ± 0.32 % injected dose/gram
Biodistribution: spleen [3, 7]: 0.15 ± 0.02 % injected dose/gram
Biodistribution: stomach [3, 7]: 0.13 ± 0.08 % injected dose/gram
Biodistribution: Blood [3, 8]: 0.8 ± 0.04 % injected dose/gram
Biodistribution: Flu tumor [3, 8]: 0.36 ± 0.14 % injected dose/gram
Biodistribution: PiP tumor [3, 8]: 17.3 ± 1.9 % injected dose/gram
Biodistribution: Salivary gland [3, 8]: 0.11 ± 0.04 % injected dose/gram
Biodistribution: kidneys [3, 8]: 1.35 ± 0.44 % injected dose/gram
Biodistribution: spleen [3, 8]: 0.14 ± 0.06 % injected dose/gram
Biodistribution: stomach [3, 8]: 0.2 ± 0.18 % injected dose/gram

O=C([O-])CN1CCN(CC(=O)[O-])CCN(CC(=O)NCCCCC(=O)N(CCCC[C@H](NC(=O)N[C@@H](CCC(=O)O)C(=O)O)C(=O)O)Cc2ccc(Br)cc2)CCN(CC(=O)[O-])CC1.[Lu+3] [[Lu]VK-01-45]
effect of competing inhibitor on two-hour kidney uptake and retention of [177Lu]VK-01-45 ([3]; self blocking, only a modest reduction in PSMA+PiP tumor uptake): can be reduced

O=C([O-])CN1CCN(CC(=O)[O-])CCN(C(CCC(=O)NCCCCC(=O)N(CCCC[C@H](NC(=O)N[C@@H](CCC(=O)O)C(=O)O)C(=O)O)Cc2ccc(Br)cc2)C(=O)O)CCN(CC(=O)[O-])CC1.[177Lu+3] (stereo partly shown) [[^177Lu]VK-03-27]
Biodistribution: Blood ([4]; 2 Hour): 1.2 ± 1.7 % injected dose/gram
Biodistribution: Flu tumor ([4]; 2 Hour): 5.8 ± 9.6 % injected dose/gram
Biodistribution: Lacrimal gland ([4]; 2 Hour): 5.8 ± 9.6 % injected dose/gram
Biodistribution: PiP tumor ([4]; 2 Hour): 50 ± 14 % injected dose/gram
Biodistribution: Salivary gland ([4]; 2 Hour): 3.4 ± 4.4 % injected dose/gram
Biodistribution: kidneys ([4]; 2 Hour): 150 ± 32 % injected dose/gram
Biodistribution: spleen ([4]; 2 Hour): 7.4 ± 3.0 % injected dose/gram
Biodistribution: stomach ([4]; 2 Hour): 0.66 ± 0.75 % injected dose/gram
Biodistribution: Blood ([4]; 8 Hour): 0.06 ± 0.02 % injected dose/gram
Biodistribution: Flu tumor ([4]; 8 Hour): 0.25 ± 0.05 % injected dose/gram
Biodistribution: Lacrimal gland ([4]; 8 Hour): 0.25 ± 0.05 % injected dose/gram
Biodistribution: PiP tumor ([4]; 8 Hour): 41 ± 9 % injected dose/gram
Biodistribution: Salivary gland ([4]; 8 Hour): 0.34 ± 0.18 % injected dose/gram
Biodistribution: kidneys ([4]; 8 Hour): 52 ± 18 % injected dose/gram
Biodistribution: spleen ([4]; 8 Hour): 1.2 ± 0.6 % injected dose/gram
Biodistribution: stomach ([4]; 8 Hour): 0.32 ± 0.31 % injected dose/gram
Biodistribution: Blood ([4]; 24 Hour): 0.03 ± 0.01 % injected dose/gram
Biodistribution: Flu tumor ([4]; 24 Hour): 0.12 ± 0.02 % injected dose/gram
Biodistribution: Lacrimal gland ([4]; 24 Hour): 0.12 ± 0.02 % injected dose/gram
Biodistribution: PiP tumor ([4]; 24 Hour): 49 ± 7 % injected dose/gram
Biodistribution: Salivary gland ([4]; 24 Hour): 0.16 ± 0.06 % injected dose/gram
Biodistribution: kidneys ([4]; 24 Hour): 5.9 ± 2.7 % injected dose/gram
Biodistribution: spleen ([4]; 24 Hour): 0.28 ± 0.13 % injected dose/gram
Biodistribution: stomach ([4]; 24 Hour): 0.14 ± 0.03 % injected dose/gram
PSMA+ PiP tumor uptake (in words) ([4]; Table 7): high PSMA+PipTumor uptake
renal uptake (in words) ([4]; Table 7): very high early renal uptake
Biodistribution: Blood ([1]; No CI): 0.43 ± 0.6 % injected dose/gram
Biodistribution: Flu tumor ([1]; No CI): 0.4 ± 0.02 % injected dose/gram
Biodistribution: Lacrimal Glands ([1]; No CI): 1.06 ± 0.37 % injected dose/gram
Biodistribution: PiP tumor ([1]; No CI): 55 ± 12 % injected dose/gram
Biodistribution: Salivary gland ([1]; No CI): 1.2 ± 0.25 % injected dose/gram
Biodistribution: kidneys ([1]; No CI): 140 ± 21 % injected dose/gram
Biodistribution: spleen ([1]; No CI): 8.0 ± 2.8 % injected dose/gram
Biodistribution: stomach ([1]; No CI): 0.44 ± 0.6 % injected dose/gram
Biodistribution: Blood ([1]; co-injection 2 nmole VK-03-27): 0.23 ± 0.5 % injected dose/gram
Biodistribution: Flu tumor ([1]; co-injection 2 nmole VK-03-27): 0.32 ± 0.05 % injected dose/gram
Biodistribution: Lacrimal Glands ([1]; co-injection 2 nmole VK-03-27): 0.29 ± 0.08 % injected dose/gram
Biodistribution: PiP tumor ([1]; co-injection 2 nmole VK-03-27): 37 ± 8 % injected dose/gram
Biodistribution: Salivary gland ([1]; co-injection 2 nmole VK-03-27): 0.24 ± 0.04 % injected dose/gram
Biodistribution: kidneys ([1]; co-injection 2 nmole VK-03-27): 10.6 ± 0.6 % injected dose/gram
Biodistribution: spleen ([1]; co-injection 2 nmole VK-03-27): 0.8 ± 0.17 % injected dose/gram
Biodistribution: stomach ([1]; co-injection 2 nmole VK-03-27): 0.23 ± 0.09 % injected dose/gram
Biodistribution: Blood ([1]; co-injection 20 nmole VK-03-27): 0.25 ± 0.14 % injected dose/gram
Biodistribution: Flu tumor ([1]; co-injection 20 nmole VK-03-27): 0.27 ± 0.05 % injected dose/gram
Biodistribution: Lacrimal Glands ([1]; co-injection 20 nmole VK-03-27): 0.26 ± 0.05 % injected dose/gram
Biodistribution: PiP tumor ([1]; co-injection 20 nmole VK-03-27): 26 ± 4 % injected dose/gram
Biodistribution: Salivary gland ([1]; co-injection 20 nmole VK-03-27): 0.16 ± 0.04 % injected dose/gram
Biodistribution: kidneys ([1]; co-injection 20 nmole VK-03-27): 3.5 ± 0.56 % injected dose/gram
Biodistribution: spleen ([1]; co-injection 20 nmole VK-03-27): 0.39 ± 0.18 % injected dose/gram
Biodistribution: stomach ([1]; co-injection 20 nmole VK-03-27): 0.45 ± 0.35 % injected dose/gram
Biodistribution: Blood ([1]; co-injection 40 nmole VK-03-27): 0.16 ± 0.03 % injected dose/gram
Biodistribution: Flu tumor ([1]; co-injection 40 nmole VK-03-27): 0.25 ± 0.05 % injected dose/gram
Biodistribution: Lacrimal Glands ([1]; co-injection 40 nmole VK-03-27): 0.26 ± 0.11 % injected dose/gram
Biodistribution: PiP tumor ([1]; co-injection 40 nmole VK-03-27): 18 ± 3 % injected dose/gram
Biodistribution: Salivary gland ([1]; co-injection 40 nmole VK-03-27): 0.25 ± 0.21 % injected dose/gram
Biodistribution: kidneys ([1]; co-injection 40 nmole VK-03-27): 2.15 ± 0.1 % injected dose/gram
Biodistribution: spleen ([1]; co-injection 40 nmole VK-03-27): 0.21 ± 0.1 % injected dose/gram
Biodistribution: stomach ([1]; co-injection 40 nmole VK-03-27): 0.42 ± 0.21 % injected dose/gram

O=C(O)CCC(OC(=O)NC(CCCCNC(=O)c1ccc(Br)cc1F)C(=O)O)C(=O)O (stereo not shown) [Compound 25]
pKi (PSMA): 10.00
renal uptake (in words) (PSMA+PiP tumors): high initial renal uptake that decreases over time
uptake in PSMA+ PiP tumors (in words) (PSMA+PiP tumors): high uptake
